Measured values as given in publication PMC8387043, “Host Poly(A) Polymerases PAPD5 and PAPD7 Provide Two Layers of Protection That Ensure the Integrity and Stability of Hepatitis B Virus RNA” (Journal of Virology, 2021).
Read-outs that look alike come from different tables or passages of the source.

Legend:
HBV [1] = test: Antiviral assay in HepG2.2.15 cells (HBsAg/HBeAg CLIA, secreted HBV DNA qPCR); type: cell-based, hepatitis B virus; details: Hepatitis B virus
HBV [2] = test: Antiviral assay in HBV-infected HepG2-NTCP cells; type: cell-based; details: Hepatitis B virus
HBV [3] = test: Multiple in vitro HBV replication models (summary statements); type: cell-based; details: Hepatitis B virus
Description: AB-452 and RG7834 both belong to the dihydroquinolizinones chemical class. The antiviral activities of AB-452 and its diastereomer ARB-169451 were evaluated using multiple in vitro HBV replication models, including HepG2.2.15 cells (which constitutively express HBV through the integrated viral genome), PLC/PRF/5 cells (a patient-derived hepatocellular carcinoma cell line only expressing HBsAg), and HBV-infected HepG2-NTCP cells or primary human hepatocytes (PHHs) in which viral replication was dependent on cccDNA transcription (Table 1).

HCV = test: Antiviral selectivity panel, luciferase in Huh-7 cells; type: cell-based; details: Hepatitis C virus; Huh-7, Luciferase
DENV2 = test: Antiviral selectivity panel, CPE in BHK21 cells; type: cell-based, Dengue virus 2; details: Dengue virus, DENV2, BHK-21
Description: HepG2.2.15 (30,000 cells/well) were plated in 96-well collagen-treated plates and incubated at 37°C. Compounds were half-log serially diluted and added in duplicate to 96-well microtiter plates. The plates were incubated for a total duration of 6 days, after which the culture medium was removed for the HBsAg and HBeAg CLIA assays (AutoBio Diagnostics Co., China) performed according to the manufacturer’s instructions. Secreted HBV DNA was extracted (Realtime Ready cell lysis kit; Roche, Mannheim, Germany) and quantified in a qPCR assay (LightCycler 480 SYBR green I master mix; Roche) with the 5′-[…]-3′ (sense) and 5′-[…]-3′ (antisense) primers using the PCR conditions of denaturing at 95°C for 5 min followed by 40 cycles of amplification at 95°C for 15 s and 60°C for 30 s. Antiviral selectivity studies against a panel of different DNA and RNA viruses were performed at ImQuest BioSicences (Frederick, MD, USA). Briefly, test compounds were evaluated using 6 doses, including the highest concentration of 30 μM and five serial half-logarithmic dilutions in triplicate for the antiviral assays.

RSV = test: Antiviral selectivity panel, CPE in HEp2 cells; type: cell-based; details: human respiratory syncytial virus, HEp-2
Human rhinovirus = test: Antiviral selectivity panel, CPE in H1-HeLa cells; type: cell-based; details: Human rhinovirus sp.
Influenza = test: organism not typed; type: cell-based; details: MDBK, CPE
Cytotoxicity = type: cell-based
Excerpt: TABLE 3 Cytotoxicity of AB-452 against cells derived from various tissues | column: AB-452 CC50 (μM)

[4] = Cytotoxicity (summary statement); type: cell-based; details: several cell lines from different tissue origins; 30 μM highest concentration tested
HBV RNA poly(A) tails [5] = test: HBV poly(A) tail length and composition (NGS) in HepAD38 cells; type: cell-based, hepatitis B virus; details: HepAD38, 70 nM
Description: RNA metabolism in most eukaryotic mRNAs employs the 3′ deadenylation pathway in which poly(A) tail shortening is often observed prior to mRNA degradation ([38][–][40]). We therefore determined the HBV poly(A) tail length and composition from HepAD38 cells in the presence or absence of AB-452. To amplify the HBV poly(A) tail, G/I (guanosine and inosine nucleotides) tailing was added to the 3′ ends of mRNA transcripts, and the newly added G/I tails were used as the priming sites to synthesize the cDNA that would be used for amplification of HBV poly(A) tails. The lengths and compositions of the amplicons containing the HBV RNA poly(A) tails were analyzed by next-generation sequencing (PacBio Sequel sequencing platform). […] The poly(A) tails amplified from β-actin cDNAs served as the negative control, which was not affected by the treatment (Fig. 3D).
ACTB GSP primers include 5′-[…] -3′ (sense) and 5′-[…] -3′(antisense). Amplified products were used as loading control. […] Accuracy cutoff default was 0.9.

HBsAg = HBsAg inhibition in adenovirus-HBsAg-transduced HepG2-NTCP WT and KO clones; type: cell-based, hepatitis B virus; details: for EC50: Hepatitis B virus
HBV [6] = test: AAV-HBV-transduced mouse model; details: 7 days; for mean reduction of serum HBV DNA vs vehicle / mean reduction of serum HBsAg vs vehicle / reduction of intrahepatic HBsAg levels / reduction of intrahepatic pgRNA levels / reduction of intrahepatic total HBV RNA levels: oral
Description: Male C57BL/6J mice, 6 weeks old, were each inoculated with 1E11 genomes of adeno-associated virus (AAV) vector AAV-HBV1.2 containing a 1.2× overlength sequence of HBV genome (genotype D; GenBank accession no. V01460) ([2]). Mice were administered the AAV2/8-type vector via intravenous tail vein injection. Twenty-eight days after AAV infection, animals were randomized into groups (n = 5) based on serum HBsAg concentration. […] Serum and liver HBsAg concentrations were determined using the Bio-Rad enzyme immunoassay (EIA) GS HBsAg 3.0 kit according to the manufacturer's instructions. […] Total HBV RNA concentrations in the liver were quantified using a branched DNA assay (QuantiGene 2.0; Thermo Fisher Scientific) with probes targeting the shared 3′ region of HBV transcripts, whereas 3.5 kb HBV RNA concentrations were quantified with probes targeting the unique 5′ region of the pgRNA; in both cases, signal was normalized against mouse glyceraldehyde 3-phosphate dehydrogenase (GAPDH).

HBV RNA poly(A) tails [7] = details: Huh-7, 100 nM
HBV PRE = HBV PRE cis-element reporter plasmids (HBsAg or Gluc) transfected in Huh-7 cells; details: Hepatitis B virus

Q: Which EC50 (HBV [1]; HepG2-2.2.15, Table 2, read-out: EC50, HBV (HBsAg)) does the source give for `COCCCOc1cc2c(nc1OC)-c1cc(=O)c(C(=O)O)cn1[C@H](C(C)C)C2` [AB-452] here?
A: Its EC50 is 1.2 nM.

Q: What about the EC50 (HBV [1]; HepG2.2.15 cells, read-out: HBV DNA EC50) of the same compound?
A: Its EC50 is 0.28 ± 0.01 nM.

Q: And the EC50 (HBV [1]; HepG2.2.15 cells, read-out: HBeAg EC50)?
A: Its EC50 is 2.8 ± 2.1 nM.

Q: And the EC50 (HBV [1]; HepG2.2.15 cells, read-out: HBsAg EC50)?
A: Its EC50 is 1.4 ± 0.2 nM.

Q: And the EC50 (HBV [2]; read-out: HBeAg EC50)?
A: Its EC50 is 4 ± 2.3 nM.

Q: And the EC50 (HBV [2]; read-out: HBsAg EC50)?
A: The EC50 was 6.8 ± 1.8 nM.

Q: And the EC50 (HBV [3]; HepG2.2.15, PLC/PRF/5, HepG2-NTCP, PHH, read-out: HBsAg, HBeAg and HBV DNA EC50 (range over models))?
A: Its EC50 is 0.28 to 6.8 nM.

Q: And the EC50 (HBV [3]; abstract, read-out: HBsAg EC50 in vitro (range over models))?
A: Its EC50 is 1.4 to 6.8 nM.

Q: And the EC50 (HCV)?
A: The EC50 was > 30000 nM.

Q: What about the EC50 (DENV2) of the same compound?
A: The EC50 was > 30000 nM.

Q: And the EC50 (RSV)?
A: Its EC50 is > 30000 nM.

Q: And the EC50 (Human rhinovirus)?
A: The EC50 was > 30000 nM.

Q: What about the EC50 (Influenza) of the same compound?
A: Its EC50 is > 30000 nM.

Q: And the CC50 (Cytotoxicity; African green monkey, Vero cells (kidney))?
A: The CC50 was > 30000 nM.

Q: And the CC50 (Cytotoxicity; HEp2, human epithelial cells)?
A: Its CC50 is > 30000 nM.

Q: And the CC50 (Cytotoxicity; HeLa, human cervical cancer cells)?
A: Its CC50 is > 30000 nM.

Q: And the CC50 (Cytotoxicity; cattle (bovine), MDBK cells (kidney))?
A: The CC50 was > 30000 nM.

Q: What about the CC50 (Cytotoxicity; hamster, BHK21 cells (kidney)) of the same compound?
A: Its CC50 is > 30000 nM.

Q: And the CC50 (Cytotoxicity; human, CEM-SS cells (T lymphoblast))?
A: The CC50 was > 30000 nM.

Q: And the CC50 (Cytotoxicity; human, MRC5 cells (lung fibroblasts))?
A: Its CC50 is > 30000 nM.

Q: And the CC50 [4]?
A: Its CC50 is > 30000 nM.

Q: And the “average HBV RNA poly(A) tail length” value (HBV RNA poly(A) tails [5]; 4 h, untreated around 100)?
A: Its value is 58 nucleotides.

Q: And the “fraction of poly(A) tails containing internal G” value (HBV RNA poly(A) tails [5]; untreated 64%)?
A: The value was 25%.

Q: And the EC50 (HBsAg; T222, read-out: Adeno infection EC50, P7_KO (T2-22), HBsAg)?
A: Its EC50 is 7.1 ± 1.3 nM.

Q: What about the EC50 (HBsAg; read-out: Adeno infection EC50, P5_KO (T3-4), HBsAg) of the same compound?
A: Its EC50 is 71.6 ± 31.2 nM.

Q: And the EC50 (HBsAg; read-out: Adeno infection EC50, P5_KO (T3-15), HBsAg)?
A: The EC50 was 56 ± 34 nM.

Q: And the EC50 (HBsAg; read-out: Adeno infection EC50, P7_KO (T2-8), HBsAg)?
A: The EC50 was 10 ± 1 nM.

Q: And the EC50 (HBsAg; read-out: Adeno infection EC50, WT (parent) HepG2-NTCP, HBsAg)?
A: The EC50 was 9 ± 4.6 nM.

Q: What about the “Adeno infection FC vs WT” value (HBsAg; P5_KO (T3-4)) of the same compound?
A: The value was 8.0.

Q: And the “Adeno infection FC vs WT” value (HBsAg; P5_KO (T3-15))?
A: Its value is 6.3.

Q: And the “Adeno infection FC vs WT” value (HBsAg; P7_KO (T2-8))?
A: Its value is 1.1.

Q: What about the “Adeno infection FC vs WT” value (HBsAg; P7_KO (T2-22)) of the same compound?
A: The value was 0.8.

Q: And the “Adeno infection FC vs WT” value (HBsAg; WT (parent))?
A: The value was 1.

Q: And the “inhibition in P5/7_DKO and Z14_KO cell lines” value (HBsAg; adenovirus-transduced and HBV-infected clones (Fig. 7D to G))?
A: Its value is “did not show further inhibition than the untreated controls”.

Q: And the “mean reduction of serum HBV DNA vs vehicle” value (HBV [6]; 0.1 mg/kg twice daily)?
A: The value was 0.79 log10.

Q: What about the “mean reduction of serum HBsAg vs vehicle” value (HBV [6]; 0.1 mg/kg twice daily) of the same compound?
A: The value was 0.68 log10.

Q: And the “reduction of intrahepatic HBsAg levels” value (HBV [6]; 0.1 mg/kg twice daily)?
A: Its value is 64%.

Q: What about the “reduction of intrahepatic pgRNA levels” value (HBV [6]; 0.1 mg/kg twice daily) of the same compound?
A: The value was 43%.

Q: What about the “reduction of intrahepatic total HBV RNA levels” value (HBV [6]; 0.1 mg/kg twice daily) of the same compound?
A: Its value is 35%.

Q: And the “mean reduction of serum HBV DNA vs vehicle” value (HBV [6]; 0.3 mg/kg twice daily)?
A: Its value is 1.16 log10.

Q: What about the “mean reduction of serum HBsAg vs vehicle” value (HBV [6]; 0.3 mg/kg twice daily) of the same compound?
A: The value was 0.72 log10.

Q: And the “reduction of intrahepatic HBsAg levels” value (HBV [6]; 0.3 mg/kg twice daily)?
A: The value was 69%.

Q: What about the “reduction of intrahepatic pgRNA levels” value (HBV [6]; 0.3 mg/kg twice daily) of the same compound?
A: The value was 55%.

Q: And the “reduction of intrahepatic total HBV RNA levels” value (HBV [6]; 0.3 mg/kg twice daily)?
A: The value was 55%.

Q: And the “mean reduction of serum HBV DNA vs vehicle” value (HBV [6]; 1 mg/kg twice daily)?
A: The value was 0.94 log10.

Q: What about the “mean reduction of serum HBsAg vs vehicle” value (HBV [6]; 1 mg/kg twice daily) of the same compound?
A: Its value is 0.93 log10.

Q: What about the “reduction of intrahepatic HBsAg levels” value (HBV [6]; 1 mg/kg twice daily) of the same compound?
A: Its value is 83%.

Q: And the “reduction of intrahepatic pgRNA levels” value (HBV [6]; 1 mg/kg twice daily)?
A: Its value is 63%.

Q: What about the “reduction of intrahepatic total HBV RNA levels” value (HBV [6]; 1 mg/kg twice daily) of the same compound?
A: Its value is 66%.

Q: And the “tolerability / body weight” value (HBV [6]; oral, 0.1, 0.3, 1 mg/kg twice daily, vs vehicle)?
A: Its value is “well tolerated, with no significant change or reduction in body weight”.

Q: And the “poly(A) tail length of H133_dSLα transcripts” value (HBV RNA poly(A) tails [7]; untreated 71)?
A: Its value is 62 nucleotides.

Q: And the “average poly(A) tail length of H133 transcripts” value (HBV RNA poly(A) tails [7]; untreated 124)?
A: The value was 64 nucleotides.

Q: What about the “overall guanylation frequency, H133” value (HBV RNA poly(A) tails [7]; untreated about 60%) of the same compound?
A: The value was 24%.

Q: And the EC50 (HBV PRE; 120 h, read-out: EC50, Gluc_dHBx (Gluc activity))?
A: Its EC50 is 4.2 nM.

Q: And the EC50 (HBV PRE; 120 h, read-out: EC50, H133_Gluc (Gluc activity))?
A: Its EC50 is 10 nM.

Q: What about the EC50 (HBV PRE; Huh-7, 120 h, read-out: EC50, Gluc_rcSLα (Gluc activity)) of the same compound?
A: Its EC50 is > 100 nM.

Q: What about the EC50 (HBV PRE; Huh-7, 120 h, read-out: EC50, H133 (HBsAg)) of the same compound?
A: The EC50 was 2.5 nM.

Q: What about the EC50 (HBV PRE; Huh-7, 120 h, read-out: EC50, H133_dLa (HBsAg)) of the same compound?
A: Its EC50 is 4.3 nM.
